Measurements: article PMC6858373 (Scientific Reports, 2019)
Read-outs that look alike come from different tables or passages of the source.

Assays:
Clone V cells = details: for Toxicity Assay % Fluor / Toxicity Assay Z-score: human
[1] = target: T1, FGF14:Nav1.6 C-tail complex (Homo sapiens, UniProt Q92915+Q9UQD0); test: Split-luciferase complementation assay (LCA) in Clone V double stable HEK293 cells; assay type: cell-based
T1 construct: polymerase chain reaction (PCR) amplification of the FGF14 open reading frame (nt 1–855); C-terminal fragment of Nav1.6 (amino acids 1763–1976) fused with CD4ΔC-tail (amino acids 1–395); expressed in transfected cells
T1 sequence (Q92915 1-252 isoform Q92915-2): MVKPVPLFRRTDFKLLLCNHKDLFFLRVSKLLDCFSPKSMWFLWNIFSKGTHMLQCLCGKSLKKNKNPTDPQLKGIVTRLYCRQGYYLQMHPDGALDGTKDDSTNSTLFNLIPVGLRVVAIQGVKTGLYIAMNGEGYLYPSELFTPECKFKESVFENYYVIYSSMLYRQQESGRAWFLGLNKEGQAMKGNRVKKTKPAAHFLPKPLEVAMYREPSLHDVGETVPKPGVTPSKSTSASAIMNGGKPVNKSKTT
T1 sequence (Q9UQD0 1763-1976 limits assumed): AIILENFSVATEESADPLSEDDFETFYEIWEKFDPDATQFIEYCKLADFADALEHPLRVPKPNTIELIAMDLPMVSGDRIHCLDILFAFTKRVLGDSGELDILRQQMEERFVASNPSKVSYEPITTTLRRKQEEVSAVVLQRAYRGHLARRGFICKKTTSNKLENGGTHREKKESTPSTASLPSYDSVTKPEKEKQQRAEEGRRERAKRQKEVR

[2] = target: full-length P. pyralis luciferase (Photinus pyralis, UniProt P08659, K549A/L550V/N119G/N50D/S548I); assay type: cell-based
Chain of full-length P. pyralis luciferase (P08659 whole entry N50D/N119G/S548I/K549A/L550V, looked up): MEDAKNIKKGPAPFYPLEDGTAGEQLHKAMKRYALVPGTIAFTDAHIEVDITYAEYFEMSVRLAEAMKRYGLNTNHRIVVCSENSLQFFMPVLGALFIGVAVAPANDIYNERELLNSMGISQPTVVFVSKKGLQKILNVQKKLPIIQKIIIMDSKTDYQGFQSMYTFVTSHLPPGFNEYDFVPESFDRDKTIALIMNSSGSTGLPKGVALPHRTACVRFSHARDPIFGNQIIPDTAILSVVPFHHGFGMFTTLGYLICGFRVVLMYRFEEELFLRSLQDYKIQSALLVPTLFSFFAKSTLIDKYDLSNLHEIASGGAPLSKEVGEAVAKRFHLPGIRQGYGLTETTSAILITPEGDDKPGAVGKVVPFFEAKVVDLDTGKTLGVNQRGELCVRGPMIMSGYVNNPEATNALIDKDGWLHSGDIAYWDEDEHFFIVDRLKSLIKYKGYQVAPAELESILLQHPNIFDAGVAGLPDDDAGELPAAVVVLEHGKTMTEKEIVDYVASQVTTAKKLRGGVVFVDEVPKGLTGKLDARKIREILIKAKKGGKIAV

[3] = CC_NCI screening, biological replicate Set 1, normalized to on-plate 0.3% DMSO controls
[4] = CC_NCI screening, biological replicate Set 1, normalized to on-plate 0.3% DMSO controls (n=16 per plate)
[5] = CC_NCI screening, biological replicate Set 2, normalized to on-plate 0.3% DMSO controls
[6] = CC_NCI screening, biological replicate Set 2, normalized to on-plate 0.3% DMSO controls (n=16 per plate)
[7] = average of Set 1 and Set 2, normalized to 0.3% DMSO controls
[8] = CC_NCI screening, normalized to on-plate 0.3% DMSO controls
[9] = CC_NCI screening, LCA luminescence, biological replicate Set 1, normalized to on-plate 0.3% DMSO controls (n=16 per plate)
[10] = CC_NCI screening, LCA luminescence, biological replicate Set 2, normalized to on-plate 0.3% DMSO controls (n=16 per plate)
[11] = CC_NCI screening, LCA, biological replicate Set 1, normalized to on-plate 0.3% DMSO controls
[12] = CC_NCI screening, LCA, biological replicate Set 2, normalized to on-plate 0.3% DMSO controls
[13] = CC_NCI screening, average of Set 1 and Set 2, normalized to 0.3% DMSO controls
[14] = CC_NCI screening, full-length luciferase counter-screen luminescence, normalized to on-plate 0.3% DMSO controls
[15] = CC_NCI screening, full-length luciferase counter-screen, normalized to on-plate 0.3% DMSO controls

Row | Compound | Toxicity Assay % Fluor (CTB cell viability fluorescence) (Clone V cells) | Toxicity Assay Z-score (CTB cell viability) (Clone V cells) | Split Luciferase Assay Z-score Set 1 [1, 3] | Split Luciferase Assay % Lum Set 1 [1, 4] | Split Luciferase Assay Z-score Set 2 [1, 5] | Split Luciferase Assay %Lum Set 2 [1, 6] | Split Luciferase Assay %Lum Avg [1, 7] | Luciferase Assay % Lum (full-length luciferase counter-screen) [2, 8] | Luciferase Assay Z-score (full-length luciferase counter-screen) [2, 8] | Toxicity Assay % Fluor (Clone V cells; 16 h, 30 µM) | Toxicity Assay Z-score (Clone V cells; 16 h, 30 µM) | Split Luciferase Assay % Lum Set 1 [1, 9] | Split Luciferase Assay %Lum Set 2 [1, 10] | Split Luciferase Assay Z-score Set 1 [1, 11] | Split Luciferase Assay Z-score Set 2 [1, 12] | Split Luciferase Assay %Lum Avg [1, 13] | Luciferase Assay % Lum [2, 14] | Luciferase Assay Z-score [2, 15] | further results
1 | O=C(CCCCCCC(=O)Nc1ccccc1)NO [VORINOSTAT] | 108.87% | 1.24 | 0.47 | 105.78% | -1.96 | 75.94% | 90.86% | 84.44% | -1.99 |  |  |  |  |  |  |  |  |  | 
2 | Cn1cc(C2=C(c3ccc(Cl)cc3Cl)C(=O)NC2=O)c2ccccc21 [SB 216763] |  |  |  |  |  |  |  |  |  | 101.41% | 0.20 | 88.38% | 106.11% | -0.94 | 0.50 | 97.25% | 100.07% | 0.01 | 
3 | CC(C)C[C@H](NC(=O)[C@H](Cc1ccccc1)NC(=O)c1cnccn1)B(O)O [BORTEZOMIB] |  |  |  |  |  |  |  |  |  | 89.20% | -1.51 | 55.77% | 84.27% | -3.57 | -1.28 | 70.02% | 88.79% | -1.44 | 
4 | CC1=C2C[C@H]3[C@@H](CC=C4C[C@@H](O)CC[C@@]43C)[C@@H]2CC[C@]12O[C@@H]1C[C@H](C)CN[C@H]1[C@H]2C [CYCLOPAMINE] |  |  |  |  |  |  |  |  |  |  |  |  |  |  |  |  |  |  | Toxicity Assay % Fluor (Clone V cells): 85.59%; Toxicity Assay Z-score (Clone V cells): -2.01; Split Luciferase Assay % Lum Set 1 [1]: 141.65%; Split Luciferase Assay %Lum Avg [1]: 122.84%; Split Luciferase Assay %Lum Set 2 [1]: 104.03%; Split Luciferase Assay Z-score Set 1 [1]: 3.37; Split Luciferase Assay Z-score Set 2 [1]: 0.33; Luciferase Assay Z-score [2]: 0.81
5 | CCNC(=O)c1noc(-c2cc(C(C)C)c(O)cc2O)c1-c1ccc(CN2CCOCC2)cc1 [NVP AUY922] |  |  |  |  |  |  |  |  |  | 88.69% | -1.58 | 40.55% | 50.98% | -4.80 | -3.99 | 45.76% | 86.39% | -1.74 | 
6 | CN(C)C(=N)N=C(N)N [METFORMIN] |  |  |  |  |  |  |  |  |  | 91.06% | -1.25 | 117.73% | 114.43% | 1.43 | 1.17 | 116.08% |  |  | Luciferase Assay % Lum [2]: 96.22%; Luciferase Assay Z-score [2]: -0.48
7 | Nc1ncnc2c1c(-c1cnc3[nH]ccc3c1)nn2C1CCCC1 [PP121, reference compound] | 111.23% | 1.57 | -4.89 | 39.46% | -3.40 | 58.26% | 48.86% | 124.27% | 3.11 |  |  |  |  |  |  |  |  |  | Z-score (LCA primary screening) ([1]; 30 µM, 384-well, average of primary screening (n = 2), vs on-plate 0.3% DMSO): −4.14; Z-score, full-length luciferase assay ([2]; 30 µM, 384-well plates, vs on-plate 0.3% DMSO): 3.11
8 | COc1cc2ncn(-c3cc(OCc4ccccc4C(F)(F)F)c(C(N)=O)s3)c2cc1OC [GW 843682X] |  |  |  |  |  |  |  |  |  | 106.44% | 0.90 | 163.39% | 170.61% | 5.12 | 5.75 | 167.00% | 102.89% | 0.37 | 
9 | CN(C)S(=O)(=O)c1ccc2c(c1)/C(=C/c1cc3c([nH]1)CCCC3)C(=O)N2 [SU 6656] |  |  |  |  |  |  |  |  |  | 105.95% | 0.83 | 128.60% | 106.11% | 2.31 | 0.50 | 117.36% | 101.36% | 0.17 | 
10 | COc1cc2ncnc(Nc3cccc(Br)c3)c2cc1OC [PD 153035] |  |  |  |  |  |  |  |  |  | 98.57% | -0.20 | 143.82% | 121.72% |  |  | 132.77% |  |  | Split Luciferase Assay Z-score Set 1 [1]: 3.54; Split Luciferase Assay Z-score Set 2 [1]: 1.77; Luciferase Assay % Lum [2]: 83.75%; Luciferase Assay Z-score [2]: -2.08
11 | Cn1cc(/C=C2\C(=O)Nc3cccnc32)c2ccccc21 [GW 441756] | 107.67% | 1.07 | -0.50 | 93.82% | -2.30 | 71.78% | 82.80% | 109.93% | 1.27 |  |  |  |  |  |  |  |  |  | 
12 | COc1ccc2c(c1OC)N=C(NC(=O)c1cccnc1)N1CCN=C21 [PIK 90] | 101.53% | 0.21 | -0.15 | 98.17% | -1.11 | 86.35% | 92.26% | 102.65% | 0.34 |  |  |  |  |  |  |  |  |  | 
